Data from ChEMBL document CHEMBL3880439, “Cyclopentanone and cyclopentanone derivatives as potent activators of HSF-1” (2004).

Key:
[1] = Cytotoxicity against African green monkey 37RC cells by microscopic method; format: cell-based; conditions: chlorocebus aethiops
[2] = Cytotoxicity against African green monkey 37RC cells incubated for 8 hrs measured after 6 hrs by neutral red assay; format: cell-based; conditions: chlorocebus aethiops, read-out: LC50
[3] = target: Heat shock factor protein (Homo sapiens) (UniProt Q00613+Q03933+Q9ULV5); assay: Activation of HSF in human HeLa cell clone 13B after 8 hrs by luciferase reporter gene assay; format: cell-based
Respirovirus muris = assay: Antiviral activity against Sendai virus infected in African green monkey 37RC cells assessed as inhibition of viral replication at 24 hrs by haemagglutinin titration method; format: functional; conditions: read-out: ID50 (the source's name)
[4] = Cytotoxicity against human HeLa cells incubated for 8 hrs measured after 6 hrs by Alamar blue assay; format: cell-based; conditions: read-out: LC50
[5] = Toxicity in iv dosed anaesthetized rat assessed as decrease in blood pressure administered as infusion; format: organism-based; conditions: in vivo

Compound	TD100 [1] [µM]	CC50 at 8 h [2] [µM]	AC200 [3] [µM]	IC50 (Respirovirus muris) [µM]	CC50 at 8 h [4] [µM]	Activity [5]
CC(C)(C)OC(=O)NC1C=CC(=O)/C1=C/c1ccc(Cl)cc1 (configuration not stated)	10	3.4 to 72	2	0.6	> 800	
O=C1C=CC(NC(=O)c2ccccc2)C1 (configuration not stated)	100	59	51	20	> 800	
O=C1C=CC(NC(=O)Oc2ccccc2)C1 (configuration not stated)		74	10			
CCCCC1C=CC(=O)/C1=C/CC(C)C (configuration not stated)	50		13	0.3	227	
COC(=O)[C@H](CS[C@@H]1CC(=O)C[C@H]1NC(=O)Oc1ccccc1)NC(=O)OC(C)(C)C		76	13			
CC(C)/C=C1/C(=O)C=CC1NC(=O)OC(C)(C)C (configuration not stated)	50	4	2.8	1	> 800	
C[C@H]1C=CC(=O)/C1=C/c1ccc([N+](=O)[O-])cc1			2		> 800	
CC(C)(C)OC(=O)NC1C=CC(=O)C1 (configuration not stated)	100		51	20	> 800	
CCCCC[C@H](O)/C=C/[C@H]1C=CC(=O)[C@@H]1CCCCCCC(=O)O [PROSTAGLANDIN A1]						Toxic
CCCCC/C=C1/C(=O)C=CC1C (configuration not stated)			> 100		> 800	
O=C1C[C@@H](NC(=O)Oc2ccccc2)[C@H](Sc2ccc3ccccc3c2)C1		113	26			
CC(C)(C)OC(=O)N[C@@H](CS[C@@H]1CC(=O)/C(=C/c2ccccc2)[C@H]1NC(=O)OC(C)(C)C)C(=O)O		25	< 6.2			
COC(=O)[C@H](CSC1CC(=O)/C(=C/C(C)C)C1C)NC(=O)OC(C)(C)C (some centres not stated)			18		> 800	
Cc1cc(C)c(/C=C2/C(=O)C=C[C@@H]2NC(=O)OC(C)(C)C)c(C)c1		25	< 6.2			
CCOC(=O)N(C(=O)OC(C)(C)C)C1C=CC(=O)C1 (configuration not stated)		233	18			
CCCCCC/C=C1/C(=O)C=CC1C (configuration not stated)			< 6.2		234	
O=C1C=CC(Nc2ccccc2)C1 (configuration not stated)			27		> 800	
Cc1ccc(S(=O)(=O)NC(=O)OC2C=CC(=O)C2)cc1 (configuration not stated)			13		> 800	
O=C1C[C@H](Sc2ccc3ccccc3c2)[C@H](NC(=O)Oc2ccccc2)C1		183	28			
O=C1C=CC(NC(=O)CCl)C1 (configuration not stated)		79	< 6.2			
CCCCC1C=CC(=O)/C1=C/C(C)C (configuration not stated)	10		13	0.3	506	
CC(C)(C)OC(=O)NC1C=CC(=O)/C1=C/c1ccccc1 (configuration not stated)	10	33	1.8	0.6	> 800	
CCOC(=O)NC1C=CC(=O)C1 (configuration not stated)		104	49			
CC1C=CC(=O)/C1=C/c1ccccc1 (configuration not stated)	50		3	0.9	314	
CC(C)/C=C1/C(=O)C=C[C@@H]1NC(=O)OC(C)(C)C	50	4	1.8	1	> 800	
CCCCC1C=CC(=O)/C1=C/C1CC1 (configuration not stated)			8		239	
CC(C)/C=C1/C(=O)C=CC1C (configuration not stated)			13		> 800	
CC(C)/C=C1\C(=O)C=CC1NC(=O)c1ccccc1 (configuration not stated)	10	4	< 6.2	0.3	50	
CCCCC[C@H](O)/C=C/[C@H]1[C@H](O)CC(=O)[C@@H]1CCCCCCC(=O)O [ALPROSTADIL]						Toxic
CC(C)/C=C1/C(=O)C=C[C@H]1NC(=O)OC(C)(C)C	10	4	5	0.4	> 800	
